Measured values from patent publication US20080292699A1, “SOLID PHARMACEUTICAL DOSAGE UNIT FOR A[…] OF RHINORRHEA” (SOVEREIGN PHARMACEUTICALS, LTD., priority 2007, published 2008).
Where a name gives a salt, the structure may show the parent alone.

Test: Dissolution testing of the bi-layered tablet (USP I, baskets, 0.01 N HCl)
Assay type: physicochemical
Conditions: 500 mL 0.01 N HCl, 37° C., 100 rpm, average of six tablets
[1] = Time 2 hr, sustained release layer
[2] = Time 4 hr, sustained release layer
[3] = Time 8 hr, sustained release layer

Procedure: Place 500 mL (+/−5 mL) of 0.01 N HCl in each vessel of the dissolution apparatus (USP I, baskets). Allow media to equilibrate to 37° C.+/−0.5° C. […] Select 6 tablets at random and record weight of each tablet. […] Put one tablet into each basket. Turn dissolution apparatus on to a rate of 100 rpm. […] Withdraw samples through a 45 μm porous polyethylene filter disc (Whatman GE/X or Millipore Millex-GN) at 45 minutes, 2, 4 and 8 hours. […] Inject filtered samples into a gas chromatograph, injecting one standard (as used for calibration) after every six samples. Gas Chromatography: Instrument: Waters Alliance 2695 Separation Module Column: Waters μBondapak C18 Column, 10 μm, 3.9×300 mm; PN WAT027324 Column Temperature: 52° C. Flow Rate: 1.8 mL per minute Injection Volume: 200 μL Detector: UV at 257 nm Mobile Phase: A: Methanol • B: Pic-B8 (for every liter of Pic-B8 aqueous solution, dissolve 2.164 g of 1-octanesulfonic acid sodium salt in water and add 20 mL of glacial acetic acid) [table]

Row | Average Amount Released [%] [1] [%] | Average Amount Released [%] [2] [%] | Average Amount Released [%] [3] [%] | Compound | Average Amount Released [%] (Time 45 min, immediate release layer)
1 | 33.3 | 57.1 | 87.0 | CN(C)CCC(c1ccc(Cl)cc1)c1ccccn1 (stereo not shown) [CPM, Chlorpheniramine Maleate] | –
2 | 43.6 | 65.8 | 89.0 | CNC[C@H](O)c1cccc(O)c1 [PEH, Phenylephrine HCl] | –
3 | – | – | – | Methscopolamine Nitrate [MSPN] | 100.2
